# Measurements from article PMC5006944 (Cell, 2016).
# pKd: −log10 of the molar value.
# Legend:
# [1] = tested on: MEK and ERK phosphorylation in HeLa and A431 cells; experiment: MEK and ERK phosphorylation western blot, HeLa and A431 cells; assay type: cell-based
# [2] = target: GST-RBD (AA 1–149) of c-RAF (Homo sapiens, UniProt P04049); experiment: Differential scanning fluorimetry; assay type: binding; conditions: DSF
# [3] = tested on: GTP-RAS in HeLa and A431 cell lines; experiment: Active RAS pull-down after EGF stimulation, wild-type RAS cells; assay type: cell-based; conditions: serum-starved HeLa and A431 cells, 2 μM
# [4] = tested on: c-RAF^Ser338 phosphorylation; experiment: EGF-induced c-RAF^Ser338 phosphorylation in HCT116 cells; assay type: cell-based, human; conditions: serum-starved HCT116, EGF 5 min
# [5] = target: kinase domain (KD) of c-RAF (AA 306–648) (Homo sapiens, UniProt P04049); experiment: Differential scanning fluorimetry; assay type: binding; conditions: DSF
# kinase domain (KD) of c-RAF (AA 306–648), sequence (P04049 306-648): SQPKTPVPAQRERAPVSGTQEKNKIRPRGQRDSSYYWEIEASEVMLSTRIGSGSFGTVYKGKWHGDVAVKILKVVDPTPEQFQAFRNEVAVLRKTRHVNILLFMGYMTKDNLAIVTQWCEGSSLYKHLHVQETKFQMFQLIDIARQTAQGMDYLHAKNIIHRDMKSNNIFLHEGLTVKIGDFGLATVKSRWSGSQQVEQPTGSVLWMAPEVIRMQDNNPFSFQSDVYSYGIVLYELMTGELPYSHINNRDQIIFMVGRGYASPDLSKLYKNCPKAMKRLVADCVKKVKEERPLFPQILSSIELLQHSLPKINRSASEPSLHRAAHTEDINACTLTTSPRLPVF
# c-RAF/B-RAF heterodimer = c-RAF/B-RAF heterodimer (Homo sapiens, UniProt P04049+P15056); experiment: c-RAF/B-RAF co-immunoprecipitation after EGF stimulation; assay type: cell-based; conditions: EGF-stimulated HeLa and A431 cells
# c-RAF/B-RAF heterodimer, sequence (P04049 whole entry): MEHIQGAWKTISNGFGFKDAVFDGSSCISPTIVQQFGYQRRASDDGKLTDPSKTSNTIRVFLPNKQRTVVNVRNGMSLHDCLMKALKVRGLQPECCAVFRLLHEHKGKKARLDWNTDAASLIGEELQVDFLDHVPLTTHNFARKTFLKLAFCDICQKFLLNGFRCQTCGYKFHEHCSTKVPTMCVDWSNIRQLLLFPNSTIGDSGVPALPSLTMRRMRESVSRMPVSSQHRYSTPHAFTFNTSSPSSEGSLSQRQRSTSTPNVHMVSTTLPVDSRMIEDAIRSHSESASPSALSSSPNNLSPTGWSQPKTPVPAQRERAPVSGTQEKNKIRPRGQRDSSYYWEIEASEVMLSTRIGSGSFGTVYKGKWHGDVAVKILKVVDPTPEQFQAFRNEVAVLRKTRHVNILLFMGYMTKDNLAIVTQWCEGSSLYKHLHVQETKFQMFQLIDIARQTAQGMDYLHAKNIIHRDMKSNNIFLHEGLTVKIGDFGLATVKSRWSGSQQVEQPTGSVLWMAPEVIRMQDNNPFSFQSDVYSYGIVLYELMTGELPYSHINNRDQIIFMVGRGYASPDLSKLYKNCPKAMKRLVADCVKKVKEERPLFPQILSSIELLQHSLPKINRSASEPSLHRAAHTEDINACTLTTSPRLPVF
# c-RAF/B-RAF heterodimer, sequence (P15056 whole entry): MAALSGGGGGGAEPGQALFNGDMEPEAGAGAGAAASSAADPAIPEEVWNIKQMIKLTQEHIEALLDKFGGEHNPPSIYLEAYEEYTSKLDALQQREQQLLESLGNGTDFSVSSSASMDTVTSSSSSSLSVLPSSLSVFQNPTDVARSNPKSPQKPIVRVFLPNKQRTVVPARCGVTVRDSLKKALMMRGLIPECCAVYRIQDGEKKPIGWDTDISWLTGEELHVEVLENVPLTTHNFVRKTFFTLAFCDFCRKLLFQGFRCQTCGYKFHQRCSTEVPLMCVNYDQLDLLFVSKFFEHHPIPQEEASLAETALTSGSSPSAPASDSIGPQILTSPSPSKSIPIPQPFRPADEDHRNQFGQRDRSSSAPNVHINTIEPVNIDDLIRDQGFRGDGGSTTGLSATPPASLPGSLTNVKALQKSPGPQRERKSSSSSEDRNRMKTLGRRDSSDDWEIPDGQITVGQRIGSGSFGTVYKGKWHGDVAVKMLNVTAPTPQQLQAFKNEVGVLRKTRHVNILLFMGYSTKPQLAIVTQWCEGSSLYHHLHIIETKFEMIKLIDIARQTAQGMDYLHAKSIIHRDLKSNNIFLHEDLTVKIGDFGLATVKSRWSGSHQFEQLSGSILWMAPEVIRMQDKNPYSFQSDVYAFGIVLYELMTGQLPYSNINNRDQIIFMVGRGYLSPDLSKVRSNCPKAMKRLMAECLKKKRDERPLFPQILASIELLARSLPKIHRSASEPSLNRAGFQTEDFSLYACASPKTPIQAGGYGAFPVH
# [6] = tested on: c-RAF kinase activity in HeLa and A431 cells; experiment: RAF kinase activity of c-RAF immunoprecipitates from EGF-stimulated cells; assay type: cell-based; conditions: pre-treatment of cells; MEK substrate
# [7] = target: PLK1 association with c-RAF^Ser338 (Homo sapiens, UniProt P04049); experiment: PLK1 immunoprecipitation, associated c-RAF^Ser338 in HCT116 cells; assay type: cell-based; conditions: HCT116, anti-PLK1 immunoprecipitation
# PLK1 association with c-RAF^Ser338, sequence (P04049 whole entry): as the sequence (P04049 whole entry) above
# [8] = tested on: MEK and ERK activation in N-RAS (G12D)-expressing HeLa, HCT-116 and A549 cells; experiment: MEK and ERK activation western blot, mutant RAS cells; assay type: cell-based
# [9] = target: GST-tagged c-RAF RBD (aa 1–149) (Homo sapiens, UniProt P04049); experiment: Microscale thermophoresis
# GST-tagged c-RAF RBD (aa 1–149), sequence (P04049 1-149): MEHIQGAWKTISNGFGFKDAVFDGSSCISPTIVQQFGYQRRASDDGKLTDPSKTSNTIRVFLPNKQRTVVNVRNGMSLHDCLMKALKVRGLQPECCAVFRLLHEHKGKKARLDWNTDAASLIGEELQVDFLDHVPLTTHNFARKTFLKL
# [10] = tested on: PanIN lesions (K-RAS^G12D); experiment: Pdx-cre:Kras^+/LSL G12D mouse model of pancreatic intraepithelial neoplasia; assay type: in vivo; conditions: 14 days
# [11] = tested on: c-RAF^Ser338 phosphorylation; experiment: c-RAF^Ser338 phosphorylation in synchronized HCT116 cells entering mitosis; assay type: cell-based, human; conditions: HCT116, released from double thymidine block
# mutant c-RAF RBDs = experiment: MST binding to mutant c-RAF RBDs; conditions: V69A
# [12] = tested on: HA-tagged mutant N-RAS G12D GTP-RAS in HeLa cells; experiment: Active RAS pull-down, HeLa cells expressing mutant N-RAS G12D; assay type: cell-based; conditions: pre-incubation
# [13] = tested on: A549 (K-RAS^G12S) xenograft; experiment: A549 xenograft tumor growth; conditions: 100 mg/kg twice daily i.p., 16 days, nude mice
# [14] = tested on: MDS patients with monosomy 7 and trisomy 8; conditions: phase III, MDS with monosomy 7 and trisomy 8; ref Garcia-Manero et al., 2016; cited from earlier work
# [15] = tested on: c-RAF^Ser338, MEK, ERK, and AKT phosphorylation; experiment: Western blot of xenograft tumor extracts; assay type: in vivo, mouse; conditions: tumor extracts vs placebo
# recombinant Ral-GDS RBD = recombinant Ral-GDS RBD (Homo sapiens, UniProt Q12967); experiment: DSF and biotin-RGS pull-down, Ral-GDS RBD; assay type: binding; conditions: DSF and pull-down with biotin-RGS conjugate
# recombinant Ral-GDS RBD, sequence (Q12967 798-885 limits assumed): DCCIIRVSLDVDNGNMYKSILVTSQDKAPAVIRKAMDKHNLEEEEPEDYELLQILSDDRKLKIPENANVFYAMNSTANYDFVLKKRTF
# [16] = target: GST-tagged B-RAF RBD (aa 151–230) (Homo sapiens, UniProt P15056); experiment: Microscale thermophoresis
# GST-tagged B-RAF RBD (aa 151–230), sequence (P15056 151-230): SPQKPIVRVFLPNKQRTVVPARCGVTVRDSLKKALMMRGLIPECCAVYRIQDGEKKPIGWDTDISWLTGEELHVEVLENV
# PLK1 = conditions: subsequent experiments by us and others; ref Steegmaier et al., 2007; cited from earlier work
# [17] = tested on: HCT116 (K-RAS^G13D) xenograft; experiment: HCT116 xenograft tumor growth; conditions: 100 mg/kg twice daily i.p., 16 days, nude mice
# [18] = target: GTP-RAS and CRAF-RBD interaction (Homo sapiens, UniProt P04049); experiment: In vitro association of GST-RBD with GTP-RAS from EGF-stimulated A431 lysates; assay type: biochemical; conditions: GST-RBD pre-incubated with increasing concentrations
# GTP-RAS and CRAF-RBD interaction, sequence (P04049 56-131 limits assumed): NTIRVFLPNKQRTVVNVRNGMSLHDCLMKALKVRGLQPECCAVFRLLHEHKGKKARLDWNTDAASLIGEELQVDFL
# three RAF proteins = experiment: In vitro RAF kinase assays; assay type: biochemical
# GST-RBD (AA 1–149) of c-RAF, sequence (P04049 1-149): as the sequence (P04049 1-149) above
compound,measurement,setting,value
"CCCS(=O)(=O)Nc1ccc(F)c(C(=O)c2c[nH]c3ncc(-c4ccc(Cl)cc4)cc23)c1F [PLX4032, vemurafenib, reference compound]",phosphorylation status of MEK and ERK,[1],a small increase or no change
same,interaction with c-RAF RBD (change in Tm),[2],not with the RBD
same,GTP-RAS pulled down by GST-RBD after EGF stimulation,[3],GTP-RAS could readily be pulled down
same,EGF-induced c-RAF^Ser338 phosphorylation,[4],little or no effect
same,interaction with c-RAF kinase domain (thermal shift),[5],strong thermal shift
same,c-RAF/B-RAF heterodimer formation,c-RAF/B-RAF heterodimer,enhanced the association
same,EGF-induced activation of RAF kinase activity,[6],enhancement
"COC(=O)Nc1nc2ccc(C(=O)c3cccs3)cc2[nH]1 [nocadazole, nocodazole, reference compound]",association of PLK1 with c-RAF^Ser338,[7],strong association
"COc1cc(OC)c(/C=C/S(=O)(=O)Cc2ccc(OC)c(NCC(=O)O)c2)c(OC)c1 [RGS, rigosertib]",MEK and ERK activation,[8],inhibits MEK and ERK activation equally well
same,pKd,[9],9.74
same,"decrease in number of PanIN 1B, 2, and 3 grade tumors",[10]; 200 mg/kg twice daily i.p.,statistically significant
same,"number of pancreatic lesions, less than placebo-treated group",[10]; 200 mg/kg twice daily i.p.,~ 3 fold
same,"cleaved caspase-3-positive cells in PanIN lesions, greater than control",[10]; 200 mg/kg twice daily,~4 fold
same,phosphorylated ERK and AKT^Ser473 in PanINs,"[10]; immunohistochemistry, 200 mg/kg twice daily",markedly decreased levels
same,reduction of c-RAF^Ser338 phosphorylation,[11],90%
same,binding affinity to c-RAF RBD mutants with reduced RAS binding,"mutant c-RAF RBDs; mutants K65A, V70A, and V88A, increased Kd values in MST",reduced binding affinities
same,binding to c-RAF RBD mutants that abolished RAS binding,"mutant c-RAF RBDs; mutations T57A, R67A, L62A, V69G, and T68A",disrupted binding
same,levels of mutant GTP-RAS bound to GST-RBD,[12],no effect on the levels of GTP-RAS
same,phosphorylation status of MEK and ERK,[1],reduction in MEK and ERK phosphorylation
same,tumor growth,[13],dramatically decreased tumor growth
same,hazard ratio for survival,[14],0.25–0.30
same,"c-RAF^Ser338, MEK, ERK, and AKT phosphorylation in tumors",[15],dramatically reduced
same,interaction with c-RAF RBD (change in Tm),[2],bound to RGS
same,GTP-RAS pulled down by GST-RBD after EGF stimulation,[3],very little or no GTP-RAS could be precipitated
same,binding to Ral-GDS RBD,recombinant Ral-GDS RBD,"binds to recombinant Ral-GDS RBD, in a concentration-dependent manner"
same,EGF-induced c-RAF^Ser338 phosphorylation,[4],completely inhibited
same,association of PLK1 with c-RAF^Ser338,[7],little or no association
same,pKd,[16],9.15
same,PLK1 kinase activity,PLK1,does not directly inhibit
same,tumor growth,[17],dramatically decreased tumor growth
same,interaction with c-RAF kinase domain (thermal shift),[5],did not interact
same,c-RAF/B-RAF heterodimer formation,c-RAF/B-RAF heterodimer,nearly complete inhibition
same,association of GST-RBD with activated RAS,[18],inhibition of its association with activated RAS in a concentration-dependent manner
same,EGF-induced activation of RAF kinase activity,[6],inhibits EGF-induced activation of RAF kinase activity
same,kinase activity of the three RAF proteins in in vitro assays,three RAF proteins,does not inhibit
